The values that follow are results of earlier work, collected in US20230248672A1, “COMPOSITIONS COMPRISING GARDOS CHANNEL ANTAGONISTS AND THEIR USES” (ADIMABIO LLC, priority 2020, published 2023).

Molecules are shown by their SMILES. In brackets after ≈: the same amount, converted by molar mass.

Data set [1] addresses Gardos channel (Homo sapiens, UniProt O15554).
The subject of data set [2] is sickle cell disease patients.
Assay in data set [3]: not given
This is another data set of the same source.

For data set [4] the following is noted: rats, administered orally.
Assay in data set [5]: not given
The source holds these as a separate data set.

As to `Clc1ccccc1C(c1ccccc1)(c1ccccc1)n1ccnc1` [Clotrimazole], the “inhibition of the Gardos channel” value in data set [1] (normal and sickle erythrocytes) was “specific, potent inhibitor”.
As usually defined, the log P is a log measure of how a compound divides between an organic and an aqueous phase. What is called aqueous solubility is how much of the substance goes into solution per volume. For `NC(=O)C(c1ccccc1)(c1ccc(F)cc1)c1ccc(F)cc1` [senicapoc, 2,2-bis(4-fluorophenyl)-2-phenylacetamide], the oral bioavailability is on record as 51%. In addition, the “rate of sickle cell painful crises” value in data set [2] (compared to placebo) was “no significant improvement”. In addition, the tolerability result in data set [2] (dose of 10 mg, sickle cell disease patients) is “well tolerated”. Also, in data set [2] (sickle cell disease patients), the hemoglobin entry is on record as “dose-dependent increase” and the markers of hemolysis result is “decrease”. Moreover, the “block of potassium efflux through the Gardos channel” value in data set [1] (red blood cells) is recorded as “selectively blocks”. Further, in data set [3], the log partition coefficient (log P) is 3.59. Also, in data set [4], the “time at which maximum concentration is attained” value is on record as 4 h. For the same molecule, the aqueous solubility in data set [5] is 975 µg/mL (≈ 3.02 mM).
